This assay has as its target T1, RxPAL (phenylalanine ammonia-lyase of Rubrobacter xylanophilus) (Rubrobacter xylanophilus, UniProt Q1AV79).
T1 construct: gene Rxyl_1739; full length (540 AA), N-terminal His6-tag kept, codon-optimised synthetic gene in pBAD-HisB, expressed in E. coli TOP10, Ni-NTA purified; MIO prosthetic group formed from ASG
Briefly: UV spectrophotometry at […] nm, cinnamic acid formation. The assay is classed as biochemical. The conditions noted are these: 20 mM L-phenylalanine, 0.1 M buffers pH 4.0-12, ionic strength 250 mM.

Molecules are shown by their SMILES.

T1 sequence (Q1AV79 entry or part of it): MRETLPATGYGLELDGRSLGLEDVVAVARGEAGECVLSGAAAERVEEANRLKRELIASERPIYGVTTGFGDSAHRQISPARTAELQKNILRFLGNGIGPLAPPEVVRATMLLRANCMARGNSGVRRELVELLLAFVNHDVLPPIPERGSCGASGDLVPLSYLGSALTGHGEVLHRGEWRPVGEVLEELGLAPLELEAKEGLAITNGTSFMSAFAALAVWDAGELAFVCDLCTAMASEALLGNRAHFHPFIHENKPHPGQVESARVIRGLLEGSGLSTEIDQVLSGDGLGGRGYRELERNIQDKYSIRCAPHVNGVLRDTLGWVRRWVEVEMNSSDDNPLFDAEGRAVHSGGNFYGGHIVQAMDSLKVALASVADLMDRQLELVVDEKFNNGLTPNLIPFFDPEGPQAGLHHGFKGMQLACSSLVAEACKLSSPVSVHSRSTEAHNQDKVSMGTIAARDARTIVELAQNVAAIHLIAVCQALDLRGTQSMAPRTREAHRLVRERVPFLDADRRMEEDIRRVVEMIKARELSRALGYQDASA

`N[C@@H](Cc1ccccc1)C(=O)O` [L-phenylalanine]: the “UV spectrophotometry at 290 nm, cinnamic acid formation” value is on record as “Progress of ammonia elimination from L-phenylalanine was monitored by detection of (E)-cinnamic acid production”.

Source of the values: article PMC3903478, “Expression and Properties of the Highly Alkalophilic Phenylalanine Ammonia-Lyase of Thermophilic Rubrobacter xylanophilus” (PLoS ONE, 2014).
